One assay deals with T1, human orexin-1 receptor (Homo sapiens, UniProt O43613).
T1 construct: expressed in transfected cells; host or cells: CHO (Chinese hamster ovary) cells, G418 selection
T1 sequence (O43613 1-425): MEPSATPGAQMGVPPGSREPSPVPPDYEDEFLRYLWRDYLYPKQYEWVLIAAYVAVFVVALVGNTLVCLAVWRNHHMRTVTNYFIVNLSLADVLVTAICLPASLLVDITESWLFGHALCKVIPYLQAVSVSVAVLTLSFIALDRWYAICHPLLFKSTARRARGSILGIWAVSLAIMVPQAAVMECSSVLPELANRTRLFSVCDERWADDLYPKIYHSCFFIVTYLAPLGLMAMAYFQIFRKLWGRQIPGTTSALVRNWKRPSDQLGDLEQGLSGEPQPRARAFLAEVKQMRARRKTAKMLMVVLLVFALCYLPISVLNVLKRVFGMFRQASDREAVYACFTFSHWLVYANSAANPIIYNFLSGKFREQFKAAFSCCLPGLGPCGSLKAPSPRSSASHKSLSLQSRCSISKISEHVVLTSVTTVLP
Put plainly: Intracellular calcium measurements (FLIPR), orexin receptor antagonistic activity, OX1. The class given is cell-based. The note with it: CHO cells expressing the human orexin-1 receptor, 10 nM orexin-A as agonist. As to the method: (§1) The orexin receptor antagonistic activity of the compounds of formula (I) is determined in accordance with the following experimental method.
(§2) Intracellular Calcium Measurements:
(§3) Chinese hamster ovary (CHO) cells expressing the human orexin-1 receptor and the human orexin-2 receptor, respectively, are grown in culture medium (Ham F-12 with L-Glutamine) containing 300 μg/ml G418, 100 U/ml penicillin, 100 μg/ml streptomycin and 10% inactivated fetal calf serum (FCS). The cells are seeded at 80′000 cells/well into 96-well black clear bottom sterile plates (Costar) which have been precoated with 1% gelatine in Hanks' Balanced Salt Solution (HBSS). All reagents are from Gibco BRL. The seeded plates are incubated overnight at 37° C. in 5% CO2.
(§4) Human orexin-A as an agonist is prepared as 1 mM stock solution in MeOH:water (1:1), diluted in HBSS containing 0.1% bovine serum albumin (BSA) and 2 mM HEPES for use in the assay at a final concentration of 10 nM.
(§5) Antagonists are prepared as 10 mM stock solution in DMSO, then diluted in 96-well plates, first in DMSO, then in HBSS containing 0.1% bovine serum albumin (BSA) and 2 mM HEPES.
(§6) On the day of the assay, 100 μl of loading medium (HBSS containing 1% FCS, 2 mM HEPES, 5 mM probenecid (Sigma) and 3 μM of the fluorescent calcium indicator fluo-3 AM (1 mM stock solution in DMSO with 10% pluronic acid) (Molecular Probes) is added to each well.
(§7) The 96-well plates are incubated for 60 min at 37° C. in 5% CO2. The loading solution is then aspirated and cells are washed 3 times with 200 μl HBSS containing 2.5 mM probenecid, 0.1% BSA, 2 mM HEPES. 100 μl of that same buffer is left in each well.
(§8) Within the Fluorescent Imaging Plate Reader (FLIPR, Molecular Devices), antagonists are added to the plate in a volume of 50 μl, incubated for 20 min and finally 100 μl of agonist is added. Fluorescence is measured for each well at 1 second intervals, and the height of each fluorescence peak is compared to the height of the fluorescence peak induced by 10 nM orexin-A with buffer in place of antagonist. For each antagonist, IC50 value (the concentration of compound needed to inhibit 50% of the agonistic response) is determined.

The target of another assay is T2, human orexin-2 receptor (Homo sapiens, UniProt O43614).
T2 construct: expressed in transfected cells; host or cells: CHO (Chinese hamster ovary) cells, G418 selection
T2 sequence (O43614 1-444): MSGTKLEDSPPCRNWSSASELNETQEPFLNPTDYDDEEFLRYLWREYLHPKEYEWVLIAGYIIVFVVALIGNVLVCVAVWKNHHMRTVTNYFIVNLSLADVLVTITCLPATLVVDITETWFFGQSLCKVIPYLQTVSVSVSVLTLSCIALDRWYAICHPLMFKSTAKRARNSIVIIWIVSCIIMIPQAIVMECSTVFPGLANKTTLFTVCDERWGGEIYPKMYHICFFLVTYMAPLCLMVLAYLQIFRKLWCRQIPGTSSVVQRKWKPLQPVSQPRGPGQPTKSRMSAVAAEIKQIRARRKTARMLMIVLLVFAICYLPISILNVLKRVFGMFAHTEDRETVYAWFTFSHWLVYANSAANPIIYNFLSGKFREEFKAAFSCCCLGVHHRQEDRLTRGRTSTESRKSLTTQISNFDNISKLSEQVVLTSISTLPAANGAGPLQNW
The assay is described as follows: Intracellular calcium measurements (FLIPR), orexin receptor antagonistic activity, OX2. The class given is cell-based. The note with it: CHO cells expressing the human orexin-2 receptor, 10 nM orexin-A as agonist. As to the method: as §1, §2, §3, §4, §5, §6, §7, §8
Background: A change in cytosolic calcium serves as a functional read-out for many receptors and channels.

The IC50 is the concentration that inhibits the measured activity by half.

On to `Nc1nc(C(=O)N2[C@H](CNC(=O)c3cccc4c3OCCO4)C[C@@H]3C[C@@H]32)c(-c2cccc(F)c2)s1` [Example 25, 2,3-dihydro-benzo[1,4]dioxine-5-carboxylic acid {(1S,3S,5S)-2-[2-amino-5-(3-fluoro-phenyl)-thiazole-4-carbonyl]-2-aza-bicyclo[3.1.0]hex-3-ylmethyl}-amide], for which the figures for the concentration for half-maximal inhibition (IC50) on human orexin-1 receptor and at human orexin-2 receptor were 80 nM and 14 nM, respectively.
The like results for `O=C(NC[C@@H]1C[C@@H]2C[C@@H]2N1C(=O)c1nc(C2CC2)sc1-c1ccccc1F)c1cccc2c1CCO2` [Example 208, 2,3-Dihydro-benzofuran-4-carboxylic acid {(1S,3S,5S)-2-[2-cyclopropyl-5-(2-fluoro-phenyl)-thiazole-4-carbonyl]-2-aza-bicyclo[3.1.0]hex-3-ylmethyl}-amide] were, in that order, 58 nM and 34 nM.
The like results for `Cc1cc(C)cc(-c2sc(C)nc2C(=O)N2[C@H](CNc3ncc(Br)cn3)C[C@@H]3C[C@@H]32)c1` [Example 255, {(1S,3S,5S)-3-[(5-Bromo-pyrimidin-2-ylamino)-methyl]-2-aza-bicyclo[3.1.0]hex-2-yl}-[5-(3,5-dimethyl-phenyl)-2-methyl-thiazol-4-yl]-methanone] were, in that order, 37 nM and 291 nM.
On the same counts, the results for `Cc1cccc(-c2sc(C)nc2C(=O)N2[C@H](CNc3nccc(C(F)(F)F)n3)C[C@@H]3C[C@@H]32)c1` [Example 274, (2-Methyl-5-m-tolyl-thiazol-4-yl)-{(1S,3S,5S)-3-[(4-trifluoromethyl-pyrimidin-2-ylamino)-methyl]-2-aza-bicyclo[3.1.0]hex-2-yl}-methanone] are 110 nM and 98 nM.
With `Cc1cccc(-c2sc(N)nc2C(=O)N2[C@H](CNC(=O)c3c(C)noc3C)C[C@@H]3C[C@@H]32)c1` [Example 33, 3,5-dimethyl-isoxazole-4-carboxylic acid [(1S,3S,5S)-2-(2-amino-5-m-tolyl-thiazole-4-carbonyl)-2-aza-bicyclo[3.1.0]hex-3-ylmethyl]-amide], the half-maximal inhibitory concentration (IC50) on human orexin-1 receptor came out at 129 nM; at human orexin-2 receptor, 94 nM.
The like results for `Cc1nc2sccn2c1C(=O)NC[C@@H]1C[C@@H]2C[C@@H]2N1C(=O)c1nc(N(C)C)sc1-c1ccccc1` [Example 246, 6-Methyl-imidazo[2,1-b]thiazole-5-carboxylic acid [(1S,3S,5S)-2-(2-dimethylamino-5-phenyl-thiazole-4-carbonyl)-2-aza-bicyclo[3.1.0]hex-3-ylmethyl]-amide] were, in that order, 20 nM and 44 nM.
On the same counts, the results for `Cc1nc(C(=O)N2[C@H](CNC(=O)c3cccc4cccnc34)C[C@@H]3C[C@@H]32)c(-c2ccccc2)s1` [Example 230, Quinoline-8-carboxylic acid [(1S,3S,5S)-2-(2-methyl-5-phenyl-thiazole-4-carbonyl)-2-aza-bicyclo[3.1.0]hex-3-ylmethyl]-amide] are 13 nM and 100 nM.
On the same counts, the results for `Cc1cccc(-c2sc(C)nc2C(=O)N2[C@H](CNC(=O)c3cccc(C(F)(F)F)c3)C[C@@H]3C[C@@H]32)c1` [Example 101, N-[(1S,3S,5S)-2-(2-Methyl-5-m-tolyl-thiazole-4-carbonyl)-2-aza-bicyclo[3.1.0]hex-3-ylmethyl]-3-trifluoromethyl-benzamide] are 42 nM and 57 nM.
For `Nc1nc(C(=O)N2[C@H](CNC(=O)c3cnc4sccn34)C[C@@H]3C[C@@H]32)c(-c2cccc(F)c2)s1` [Example 57, imidazo[2,1-b]thiazole-5-carboxylic acid {(1S,3S,5S)-2-[2-amino-5-(3-fluoro-phenyl)-thiazole-4-carbonyl]-2-aza-bicyclo[3.1.0]hex-3-ylmethyl}-amide], the figures for the IC50 on human orexin-1 receptor and on human orexin-2 receptor were 12 nM and 11 nM, respectively.
On the same counts, the results for `O=C(NC[C@@H]1C[C@@H]2C[C@@H]2N1C(=O)c1ccccc1-c1cccc(Cl)c1)c1cccc2occc12` [Example 8, benzofuran-4-carboxylic acid [(1S,3S,5S)-2-(3′-chloro-biphenyl-2-carbonyl)-2-aza-bicyclo[3.1.0]hex-3-ylmethyl]-amide] are 45 nM and 78 nM.
On the same counts, the results for `Cc1cccc(-c2sc(N)nc2C(=O)N2[C@H](CNC(=O)c3cccc(Br)c3)C[C@@H]3C[C@@H]32)c1` [Example 163, N-[(1S,3S,5S)-2-(2-Amino-5-m-tolyl-thiazole-4-carbonyl)-2-aza-bicyclo[3.1.0]hex-3-ylmethyl]-3-bromo-benzamide] are 62 nM and 57 nM.
The like results for `Cc1cccc(-c2sc(N)nc2C(=O)N2[C@H](CNC(=O)c3cccc4cccnc34)C[C@@H]3C[C@@H]32)c1` [Example 176, Quinoline-8-carboxylic acid [(1S,3S,5S)-2-(2-amino-5-m-tolyl-thiazole-4-carbonyl)-2-aza-bicyclo[3.1.0]hex-3-ylmethyl]-amide] were, in that order, 45 nM and 57 nM.
As to `Cc1nc2sccn2c1C(=O)NC[C@@H]1C[C@@H]2C[C@@H]2N1C(=O)c1ccccc1-c1cccc(Cl)c1` [Example 17, 6-methyl-imidazo[2,1-b]thiazole-5-carboxylic acid [(1S,3S,5S)-2-(3′-chloro-biphenyl-2-carbonyl)-2-aza-bicyclo[3.1.0]hex-3-ylmethyl]-amide], the results for the IC50 on human orexin-1 receptor and on human orexin-2 receptor were 15 nM and 60 nM, respectively.
On the same counts, the results for `O=C(NC[C@@H]1C[C@@H]2C[C@@H]2N1C(=O)c1ncsc1-c1cccc(Cl)c1)c1cccc2cccnc12` [Example 235, Quinoline-8-carboxylic acid {(1S,3S,5S)-2-[5-(3-chloro-phenyl)-thiazole-4-carbonyl]-2-aza-bicyclo[3.1.0]hex-3-ylmethyl}-amide] are 88 nM and 452 nM.
On the same counts, the results for `Cc1nc(C(=O)N2[C@H](CNC(=O)c3noc4ccccc34)C[C@@H]3C[C@@H]32)c(-c2cccc(Cl)c2)s1` [Example 147, Benzo[d]isoxazole-3-carboxylic acid {(1S,3S,5S)-2-[5-(3-chloro-phenyl)-2-methyl-thiazole-4-carbonyl]-2-aza-bicyclo[3.1.0]hex-3-ylmethyl}-amide] are 51 nM and 74 nM.
The like results for `CCc1cnc(NC[C@@H]2C[C@@H]3C[C@@H]3N2C(=O)c2nc(C)sc2-c2cccc(C)c2)nc1` [Example 277, {(1S,3S,5S)-3-[(5-Ethyl-pyrimidin-2-ylamino)-methyl]-2-aza-bicyclo[3.1.0]hex-2-yl}-(2-methyl-5-m-tolyl-thiazol-4-yl)-methanone] were, in that order, 42 nM and 154 nM.
As for `Cc1cccc(-c2sc(C)nc2C(=O)N2[C@H](CNC(=O)c3cccc4c3OCCN4C)C[C@@H]3C[C@@H]32)c1` [Example 130, 4-Methyl-3,4-dihydro-2H-benzo[1,4]oxazine-8-carboxylic acid [(1S,3S,5S)-2-(2-methyl-5-m-tolyl-thiazole-4-carbonyl)-2-aza-bicyclo[3.1.0]hex-3-ylmethyl]-amide], the IC50 at human orexin-1 receptor came out at 76 nM; at human orexin-2 receptor it was 129 nM.

For the origin of these results see patent publication US8288435B2, “2-aza-bicyclo[3.1.0]hexane derivatives as orexin receptor antagonists” (Actelion Pharmaceuticals Ltd., priority 2006, dated 2012).
